Laboratory results reported in patent publication US7582610B2, “Melanocortin receptor templates, peptides and use thereof” (priority 2003, dated 2009).
Where a SMILES comes first, the peptide text is derived from it. Bridges are numbered along the chain shown (N, C = ends). [ ]: non-standard residue; d: D form. Nle = CCCC[C@H](N)C(=O)O; Dap = NC[C@H](N)C(=O)O

Columns and labels:
mMC4R = mMC4R (Mus musculus, UniProt P56450); test: Functional bioassay, CRE/β-galactosidase reporter in HEK-293 cells stably expressing mMC4R; conditions: for pharmacology in words at mMC4R: slight agonist = some stimulatory response at 100 μM, not enough to determine an EC50
Protocol: (§1) 5,000 to 15,000 post transfection cells were plated into 96 well Primera plates (Falcon) and incubated overnight. […] The assay media was aspirated and 50 μL of lysis buffer (250 mM Tris-HCl pH=8.0 and 0.1% Triton X-100) was added. The plates were stored at −80° overnight.
(§2) The plates containing the cell lysates were thawed the following day. Aliquots of 10 μL were taken from each well and transferred to another 96-well plate for relative protein determination. To the cell lysate plates, 40 μL phosphate-buffered saline with 0.5% BSA was added to each well. Subsequently, 150 μL substrate buffer (60 mM sodium phosphate, 1 mM MgCl2, 10 mM KCl, 5 mM β-mercaptoethanol, 200 mg/100 mL ONPG) was added to each well and the plates were incubated at 37°.
(§3) The sample absorbance, OD405, was measured using a 96 well plate reader (Molecular Devices). The relative protein was determined by adding 200 μL 1:5 dilution Bio Rad G250 protein dye:water to the 10 μL cell lysate sample taken previously, and the OD595 was measured on a 96 well plate reader (Molecular Devices). Data points were normalized both to the relative protein content and non-receptor dependent forskolin stimulation.
(§4) For data analysis, EC50 and pA2 values represent the mean of duplicate experiments performed in triplet, quadruplet or more independent experiments.

mMC5R = mMC5R (Mus musculus, UniProt P41149); test: Functional bioassay, CRE/β-galactosidase reporter in HEK-293 cells stably expressing mMC5R; conditions: for pharmacology in words at mMC5R: slight agonist = some stimulatory response at 100 μM, not enough to determine an EC50
Protocol: as §1, §2, §3, §4

mMC3R = mMC3R (Mus musculus, UniProt P33033); test: Functional bioassay, CRE/β-galactosidase reporter in HEK-293 cells stably expressing mMC3R; conditions: for pharmacology in words at mMC3R: slight agonist = some stimulatory response at 100 μM, not enough to determine an EC50
Protocol: as §1, §2, §3, §4

mMC1R = mMC1R (Mus musculus, UniProt Q01727); test: Functional bioassay, CRE/β-galactosidase reporter in HEK-293 cells stably expressing mMC1R
mMC1R, sequence (Q01727 whole entry): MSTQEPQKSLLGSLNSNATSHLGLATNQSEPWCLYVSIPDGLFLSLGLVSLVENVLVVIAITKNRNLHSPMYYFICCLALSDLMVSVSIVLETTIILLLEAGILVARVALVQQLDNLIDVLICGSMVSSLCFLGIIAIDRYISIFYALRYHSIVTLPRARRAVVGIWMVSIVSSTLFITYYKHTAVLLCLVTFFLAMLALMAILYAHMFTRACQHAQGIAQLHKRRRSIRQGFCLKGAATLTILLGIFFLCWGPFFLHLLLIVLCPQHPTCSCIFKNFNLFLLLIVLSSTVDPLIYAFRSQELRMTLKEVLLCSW
Protocol: as §1, §2, §3, §4

mMC5R, sequence (P41149 whole entry): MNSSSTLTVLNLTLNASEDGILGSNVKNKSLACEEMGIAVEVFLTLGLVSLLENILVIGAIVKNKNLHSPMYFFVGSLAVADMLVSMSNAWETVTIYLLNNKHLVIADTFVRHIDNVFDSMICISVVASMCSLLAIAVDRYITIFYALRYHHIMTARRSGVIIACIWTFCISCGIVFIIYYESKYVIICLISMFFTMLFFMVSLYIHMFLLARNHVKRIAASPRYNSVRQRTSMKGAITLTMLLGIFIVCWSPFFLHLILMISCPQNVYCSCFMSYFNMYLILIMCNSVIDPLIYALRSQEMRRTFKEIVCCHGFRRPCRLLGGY
mMC4R, sequence (P56450 whole entry): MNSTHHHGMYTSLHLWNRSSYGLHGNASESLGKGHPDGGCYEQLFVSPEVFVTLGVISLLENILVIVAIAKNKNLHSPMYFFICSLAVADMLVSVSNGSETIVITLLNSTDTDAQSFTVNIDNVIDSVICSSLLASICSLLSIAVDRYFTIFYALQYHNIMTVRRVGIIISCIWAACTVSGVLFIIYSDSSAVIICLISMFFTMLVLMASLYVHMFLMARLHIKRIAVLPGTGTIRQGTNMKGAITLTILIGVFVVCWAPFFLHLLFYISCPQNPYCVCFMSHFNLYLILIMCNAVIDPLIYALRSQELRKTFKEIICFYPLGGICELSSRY
mMC3R, sequence (P33033 whole entry): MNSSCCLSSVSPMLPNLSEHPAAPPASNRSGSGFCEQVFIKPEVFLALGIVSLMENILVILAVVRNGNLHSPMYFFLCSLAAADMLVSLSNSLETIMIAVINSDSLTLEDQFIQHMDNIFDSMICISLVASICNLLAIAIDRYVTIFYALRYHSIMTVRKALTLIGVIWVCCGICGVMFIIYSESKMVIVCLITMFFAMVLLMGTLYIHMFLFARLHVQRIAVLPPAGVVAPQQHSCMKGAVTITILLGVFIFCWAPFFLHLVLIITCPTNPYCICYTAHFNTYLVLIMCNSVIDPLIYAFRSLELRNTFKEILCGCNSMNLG

With `CCCC[C@H](NC(=O)[C@H](CO)NC(=O)[C@H](Cc1ccc(O)cc1)NC(=O)[C@H](CO)NC(C)=O)C(=O)N[C@@H](Cc1ccc(O)cc1)C(=O)N[C@H]1CC(=O)NC[C@@H](C(=O)N[C@@H](Cc2ccc(O)cc2)C(=O)N[C@@H](CCCCN)C(=O)N2CCC[C@H]2C(=O)N[C@H](C(N)=O)C(C)C)NC(=O)[C@H](Cc2ccccc2)NC(=O)[C@H](C)NC(=O)[C@H](CC(N)=O)NC(=O)[C@H](Cc2ccccc2)NC(=O)[C@H](Cc2ccccc2)NC(=O)[C@H](CCCNC(=N)N)NC1=O` [SEQ ID NO: 11, Ac-Ser-Tyr-Ser-Nle-Tyr-c[Asp-Arg-Phe-Phe-Asn-Ala-Phe-Dpr]-Tyr-Lys-Pro-Val] (Ac-SYS[Nle]YDRFFNAF[Dap]YKPV-NH2; lactam 6-13) the Kb (mMC4R) was 631 nM, the EC50 (mMC5R) was greater than 100000 nM and the Kb (mMC3R) was 631 nM.

`C[C@@H]1NC(=O)[C@H](CC(N)=O)NC(=O)[C@H](Cc2c[nH]c3ccccc23)NC(=O)[C@H](CCCNC(=N)N)NC(=O)[C@@H](Cc2cccc3ccccc23)NC(=O)[C@H](Cc2c[nH]cn2)NC(=O)[C@@H](NC(=O)[C@@H](N)Cc2ccc(O)cc2)CC(=O)NC[C@@H](C(=O)N[C@@H](Cc2ccc(O)cc2)C(N)=O)NC(=O)[C@H](Cc2ccccc2)NC1=O` [SEQ ID NO: 34, Tyr-c[Asp-His-DNal(1′)-Arg-Trp-Asn-Ala-Phe-Dpr]-Tyr] was tested, and the EC50 (mMC4R) was 0.57 ± 0.08 nM.

Work on `C[C@@H]1NC(=O)[C@H](C)NC(=O)[C@@H](NC(=O)[C@@H](N)Cc2ccc(O)cc2)CC(=O)NC[C@@H](C(=O)N[C@@H](Cc2ccc(O)cc2)C(N)=O)NC(=O)[C@H](Cc2ccccc2)NC(=O)[C@H](C)NC(=O)[C@H](CC(N)=O)NC(=O)[C@H](C)NC1=O` [SEQ ID NO: 2, Tyr-c[Asp-Ala-Ala-Ala-Asn-Ala-Phe-Dpr]-Tyr] (H-YDAAANAF[Dap]Y-NH2; lactam 2-9) yielded an EC50 (mMC4R) greater than 100000 nM, an EC50 (mMC1R) greater than 100000 nM and an EC50 (mMC5R) greater than 100000 nM. The EC50 (mMC3R) was greater than 100000 nM.

`CCCC[C@H](NC(=O)[C@H](CO)NC(=O)[C@H](Cc1ccc(O)cc1)NC(=O)[C@H](CO)NC(C)=O)C(=O)N[C@@H](CCC(=O)O)C(=O)N[C@@H](Cc1c[nH]cn1)C(=O)N[C@@H](Cc1ccccc1)C(=O)N[C@@H](Cc1ccccc1)C(=O)N[C@@H](CCCNC(=N)N)C(=O)NCC(=O)N[C@@H](CCCCN)C(=O)N1CCC[C@H]1C(=O)N[C@H](C(N)=O)C(C)C` [SEQ ID NO: 14] (Ac-SYS[Nle]EHFFRGKPV-NH2) was tested, and the EC50 (mMC4R) was greater than 100000 nM, the “pharmacology in words at mMC1R” value (mMC1R; slight agonist = some stimulatory response at 100 μM, not enough to determine an EC50) was “Partial agonist” and the “pharmacology in words at mMC5R” value (mMC5R) was “Partial agonist”. The “pharmacology in words at mMC3R” value (mMC3R) was “Partial agonist”.

With `C[C@@H]1NC(=O)[C@H](CC(N)=O)NC(=O)[C@H](Cc2c[nH]c3ccccc23)NC(=O)[C@H](CCCNC(=N)N)NC(=O)[C@@H](Cc2ccccc2)NC(=O)[C@H](Cc2ccccc2)NC(=O)[C@@H](NC(=O)[C@@H](N)Cc2ccc(O)cc2)CC(=O)NC[C@@H](C(=O)N[C@@H](Cc2ccc(O)cc2)C(N)=O)NC(=O)[C@H](Cc2ccccc2)NC1=O` [SEQ ID NO: 29, Tyr-c[Asp-Phe-DPhe-Arg-Trp-Asn-Ala-Phe-Dpr]-Tyr] (H-YDF[dF]RWNAF[Dap]Y-NH2; lactam 2-10) the Kb (mMC3R) was 63.1 nM and the “pharmacology in words at mMC3R” value (mMC3R) was “Partial agonist”.

For `C[C@@H]1NC(=O)[C@H](CC(N)=O)NC(=O)[C@H](Cc2c[nH]c3ccccc23)NC(=O)[C@H](CCCNC(=N)N)NC(=O)[C@@H](Cc2ccc(I)cc2)NC(=O)[C@H](Cc2c[nH]cn2)NC(=O)[C@@H](NC(=O)[C@@H](N)Cc2ccc(O)cc2)CC(=O)NC[C@@H](C(=O)N[C@@H](Cc2ccc(O)cc2)C(N)=O)NC(=O)[C@H](Cc2ccccc2)NC1=O` [SEQ ID NO: 32, Tyr-c[Asp-His-(pI)DPhe-Arg-Trp-Asn-Ala-Phe-Dpr]-Tyr], the Kb (mMC4R) was 0.398 nM, the “pharmacology in words at mMC4R” value (mMC4R) was “Partial agonist” and the Kb (mMC3R) was 1.26 nM.

`C[C@@H]1NC(=O)[C@H](CC(N)=O)NC(=O)[C@@H](Cc2ccccc2)NC(=O)[C@H](Cc2ccccc2)NC(=O)[C@H](CCCNC(=N)N)NC(=O)[C@@H](NC(=O)[C@@H](N)Cc2ccc(O)cc2)CSSC[C@@H](C(=O)N[C@@H](Cc2ccc(O)cc2)C(N)=O)NC(=O)[C@H](Cc2ccccc2)NC1=O` [SEQ ID NO: 1, Tyr-c[Cys-Arg-Phe-DPhe-Asn-Ala-Phe-Cys]-Tyr] (H-YCRF[dF]NAFCY-NH2; disulfide 2-9) was tested, and the Kb (mMC4R) was 794 nM, the “pharmacology in words at mMC4R” value (mMC4R) was “Partial agonist” and the EC50 (mMC3R) was greater than 100000 nM. For the same molecule, the “pharmacology in words at mMC3R” value (mMC3R) was “Slight Agonist”.

`CCCC[C@H](NC(C)=O)C(=O)N[C@H]1CC(=O)NCCCC[C@@H](C(N)=O)NC(=O)[C@@H](Cc2ccccc2)NC(=O)[C@H](Cc2ccccc2)NC(=O)[C@H](CCCNC(=N)N)NC(=O)[C@H](Cc2c[nH]cn2)NC1=O` [SEQ ID NO: 23, Ac-Nle-c[Asp-His-Arg-Phe-DPhe-Lys]] (Ac-[Nle]DHRF[dF]K-NH2; lactam 2-7) was tested, and the EC50 (mMC4R) was greater than 100000 nM, the “pharmacology in words at mMC5R” value (mMC5R) was “Slight agonist” and the “pharmacology in words at mMC3R” value (mMC3R) was “Slight agonist”.

With `C[C@@H]1NC(=O)[C@H](CC(N)=O)NC(=O)[C@H](Cc2c[nH]c3ccccc23)NC(=O)[C@H](CCCNC(=N)N)NC(=O)[C@@H](Cc2ccccc2)NC(=O)[C@@H]2CCCN2C(=O)[C@@H](NC(=O)[C@@H](N)Cc2ccc(O)cc2)CC(=O)NC[C@@H](C(=O)N[C@@H](Cc2ccc(O)cc2)C(N)=O)NC(=O)[C@H](Cc2ccccc2)NC1=O` [SEQ ID NO: 28, Tyr-c[Asp-Pro-DPhe-Arg-Trp-Asn-Ala-Phe-Dpr]-Tyr] (H-YDP[dF]RWNAF[Dap]Y-NH2; lactam 2-10) the Kb (mMC3R) was 63.1 nM and the “pharmacology in words at mMC3R” value (mMC3R) was “Partial agonist”.

With `C[C@@H]1NC(=O)[C@H](CC(N)=O)NC(=O)[C@H](Cc2ccccc2)NC(=O)[C@H](CCCNC(=N)N)NC(=O)[C@H](Cc2c[nH]c3ccccc23)NC(=O)[C@@H](NC(=O)[C@@H](N)Cc2ccc(O)cc2)CC(=O)NC[C@@H](C(=O)N[C@@H](Cc2ccc(O)cc2)C(N)=O)NC(=O)[C@H](Cc2ccccc2)NC1=O` [SEQ ID NO: 4, Tyr-c[Asp-Trp-Arg-Phe-Asn-AIa-Phe-Dpr]-Tyr] (H-YDWRFNAF[Dap]Y-NH2; lactam 2-9) the “pharmacology in words at mMC4R” value (mMC4R) was “Partial agonist”, the EC50 (mMC5R) was greater than 100000 nM and the EC50 (mMC3R) was greater than 100000 nM.

`C[C@@H]1NC(=O)[C@H](CC(N)=O)NC(=O)[C@@H](Cc2ccccc2)NC(=O)[C@H](CCCNC(=N)N)NC(=O)[C@H](Cc2c[nH]c3ccccc23)NC(=O)[C@@H](NC(=O)[C@@H](N)Cc2ccc(O)cc2)CC(=O)NC[C@@H](C(=O)N[C@@H](Cc2ccc(O)cc2)C(N)=O)NC(=O)[C@H](Cc2ccccc2)NC1=O` [SEQ ID NO: 5, Tyr-c[Asp-Trp-Arg-DPhe-Asn-Ala-Phe-Dpr]-Tyr] (H-YDWR[dF]NAF[Dap]Y-NH2; lactam 2-9) was tested, and the “pharmacology in words at mMC3R” value (mMC3R) was “Slight Agonist”.

`C[C@@H]1NC(=O)[C@H](CC(N)=O)NC(=O)[C@H](Cc2c[nH]c3ccccc23)NC(=O)[C@H](CCCNC(=N)N)NC(=O)[C@H](C)NC(=O)[C@H](Cc2c[nH]cn2)NC(=O)[C@@H](NC(=O)[C@@H](N)Cc2ccc(O)cc2)CC(=O)NC[C@@H](C(=O)N[C@@H](Cc2ccc(O)cc2)C(N)=O)NC(=O)[C@H](Cc2ccccc2)NC1=O` [SEQ ID NO: 25] was tested, and the “pharmacology in words at mMC3R” value (mMC3R) was “Partial agonist”.

`C[C@@H]1NC(=O)[C@H](CC(N)=O)NC(=O)[C@H](Cc2ccccc2)NC(=O)[C@H](Cc2ccccc2)NC(=O)[C@H](CCCNC(=N)N)NC(=O)[C@@H](NC(=O)[C@@H](N)Cc2ccc(O)cc2)CC(=O)NC[C@@H](C(=O)N[C@@H](Cc2ccc(O)cc2)C(N)=O)NC(=O)[C@H](Cc2ccccc2)NC1=O` [SEQ ID NO: 3, Tyr-c[Asp-Arg-Phe-Phe-Asn-Ala-Phe-Dpr]-Tyr] was tested, and the Kb (mMC4R) was 1260 nM, the “decrease in antagonist potency at mMC4R” value (mMC4R; compared with hAGRP(109-118)) was 8 fold and the EC50 (mMC5R) was greater than 100000 nM. The Kb (mMC3R) was 2000 nM.

In the case of `CCCC[C@H](NC(=O)[C@H](CO)NC(=O)[C@H](Cc1ccc(O)cc1)NC(=O)[C@H](CO)NC(C)=O)C(=O)N[C@@H](CCC(=O)O)C(=O)N[C@@H](Cc1c[nH]cn1)C(=O)N[C@@H](CCCNC(=N)N)C(=O)N[C@@H](Cc1ccccc1)C(=O)N[C@H](Cc1ccccc1)C(=O)NCC(=O)N[C@@H](CCCCN)C(=O)N1CCC[C@H]1C(=O)N[C@H](C(N)=O)C(C)C` [SEQ ID NO: 18, Ac-Ser-Tyr-Ser-Nle-Glu-His-Arg-Phe-DPhe-Gly-Lys-Pro-Val] (Ac-SYS[Nle]EHRF[dF]GKPV-NH2), the EC50 (mMC4R) is reported as greater than 100000 nM, the “pharmacology in words at mMC5R” value (mMC5R) is reported as “Slight agonist” and the EC50 (mMC3R) is reported as greater than 100000 nM.

`C[C@@H]1NC(=O)[C@H](CC(N)=O)NC(=O)[C@H](Cc2c[nH]c3ccccc23)NC(=O)[C@H](CCCNC(=N)N)NC(=O)[C@@H](Cc2ccc(-c3ccccc3)cc2)NC(=O)[C@H](Cc2c[nH]cn2)NC(=O)[C@@H](NC(=O)[C@@H](N)Cc2ccc(O)cc2)CC(=O)NC[C@@H](C(=O)N[C@@H](Cc2ccc(O)cc2)C(N)=O)NC(=O)[C@H](Cc2ccccc2)NC1=O` [SEQ ID NO: 35, Tyr-c[Asp-His-DBip-Arg-Trp-Asn-Ala-Phe-Dpr]-Tyr] gave an EC50 (mMC4R) of 0.57 ± 0.07 nM.

With `C[C@@H]1NC(=O)[C@H](CC(N)=O)NC(=O)[C@H](Cc2c[nH]c3ccccc23)NC(=O)[C@H](CCCNC(=N)N)NC(=O)[C@@H](Cc2ccc3ccccc3c2)NC(=O)[C@H](Cc2c[nH]cn2)NC(=O)[C@@H](NC(=O)[C@@H](N)Cc2ccc(O)cc2)CC(=O)NC[C@@H](C(=O)N[C@@H](Cc2ccc(O)cc2)C(N)=O)NC(=O)[C@H](Cc2ccccc2)NC1=O` [SEQ ID NO: 33, Tyr-c[Asp-His-DNal(2′)-Arg-Trp-Asn-Ala-Phe-Dpr]-Tyr] the Kb (mMC4R) was 0.501 nM, the “pharmacology in words at mMC4R” value (mMC4R) was “Partial agonist” and the Kb (mMC3R) was 5.01 nM.

With `C[C@@H]1NC(=O)[C@H](CC(N)=O)NC(=O)[C@H](Cc2c[nH]c3ccccc23)NC(=O)[C@H](CCCNC(=N)N)NC(=O)[C@H](Cc2ccccc2)NC(=O)[C@@H](NC(=O)[C@@H](N)Cc2ccc(O)cc2)CC(=O)NC[C@@H](C(=O)N[C@@H](Cc2ccc(O)cc2)C(N)=O)NC(=O)[C@H](Cc2ccccc2)NC1=O` [SEQ ID NO: 6, Tyr-c[Asp-Phe-Arg-Trp-Asn-Ala-Phe-Dpr]-Tyr] (H-YDFRWNAF[Dap]Y-NH2; lactam 2-9) the “pharmacology in words at mMC3R” value (mMC3R) was “Slight agonist”.
